Experimental data taken from patent US20260294915A1, “COMBINATION THERAPY COMPRISING A MAT2A INHIBITOR AND A TOPOISOMERASE INHIBITOR, A SPLICING INHIBITOR SULFONAMIDE, OR A KIF18 INHIBITOR” (IDEAYA BIOSCIENCES, INC., priority 2023, published 2026).
Where two headings read alike, the source gives them in different places.

Tests used:
[1] = system: LMSU (RCB1062) human gastric tumor cell-derived xenograft (CDX) models; experiment: Anti-tumor activity in LMSU gastric mouse xenograft (CDX) model (Example 9); type: in vivo; conditions: Compound A 10 mg/kg oral once per day
Protocol: (§1) All mouse studies were approved by the Institutional Animal Care and Use Committee (IACUC) based on guidelines from the National Institutes of Health (NIH). Mice were maintained under pathogen-free conditions, and food and water were provided ad libitum.
The anti-tumor effect of Compound A and irinotecan hydrochloride as single-agents or in combination was assessed in the LMSU (RCB1062) human gastric tumor cell-derived xenograft (CDX) models. LMSU was expanded in HamF10 with 10% fetal bovine serum. Cells were free of mycoplasma and authenticated by STR profiling, and ten million cells in log growth phase were resuspended in Hanks Balanced Salt Solution containing 50% Matrigel and implanted subcutaneously into the flank of each recipient female Crl:NU-Foxn1nu mouse. Mice were housed in microisolator cages with corn cob bedding with additional enrichment consisting of sterile nesting material (Innovive) and Bio-huts (Bio-Serv). Water (Innovive) and diet (Teklad Global 19% Protein Extruded Diet 2919, Irradiated) were provided ad libitum. The environment was maintained on a 12-hour light cycle at approximately 68-72° F. and 40-60% relative humidity.
(§2) Tumor Volume (TV) was calculated using the following formula: TV (mm^3)=(width×width×length)/2. Tumor growth inhibition (TGI) was calculated by [(TV controlfinal−TV treatedfinal)/(TV controlfinal−TV controlinitial)×100]. TV was analyzed for statistical significance utilizing GraphPad Prism version 10.2.2. Repeated Measures 2-Way ANOVA with Dunnet's Multiple Comparisons was utilized, and P-values were derived from data collected on the date of Vehicle group termination and were considered statistically significant if less than 0.05.
Mean tumor volume at dosing start was approximately 185 mm^3, with seven mice randomized to each treatment group. Mice were dosed orally, once per day, with Vehicle, Compound A at 10 mg/kg, or dosed for 3 consecutive days followed by 4 days holiday by intraperitoneal (IP) injection of Compound B at 5 mg/kg or 10 mg/kg, or combination of Compound A and Compound B. The vehicle group was a combination of Vehicle A (for Compound A, 0.5% 400 cps methylcellulose with 0.5% Tween-80 in sterile water) and Vehicle B (for irinotecan hydrochloride, Saline).

[2] = system: RT112/84 human bladder tumor cell-derived xenograft (CDX) model; experiment: Anti-tumor activity in RT112/84 mouse xenograft (CDX) model (Example 7); type: in vivo; conditions: Compound A 10 mg/kg oral once per day
Protocol: as §1
The anti-tumor effect of Compound A and irinotecan hydrochloride as single-agents or in combination was assessed in the RT112/84 human bladder tumor cell-derived xenograft (CDX) model. Cells were expanded in RPMI-1640 (Gibco, Catalog Number 11875093) with 10% fetal bovine serum. These cells were free of mycoplasma and authenticated by STR profiling. Five million cells in log growth phase were resuspended in Hanks Balanced Salt Solution containing 50% Matrigel and implanted subcutaneously into the flank of each recipient female Crl:NU-Foxnlnu mouse. Mice were housed in microisolator cages with corn cob bedding with additional enrichment consisting of sterile nesting material (Innovive) and Bio-huts (Bio-Serv). Water (Innovive) and diet (Teklad Global 19% Protein Extruded Diet 2919, Irradiated) were provided ad libitum. The environment was maintained on a 12-hour light cycle at approximately 68-72° F. and 40-60% relative humidity.
as §2, with “10.0.3.” for “10.2.2.”, “Tukey's” for “Dunnet's”, “Day 14 (date” for “the date”, “termination)” for “termination”, “0.05. Tumor regression was calculated by using the percent change in tumor volume from the final tumor volume measurement from Day 73 when compared to the initial tumor volume from Day 1. Tumor regression was defined as reduced TV on Day 73 compared to Day 1. Tumor regression rate was defined as the percentage of animals per group with tumor regression.” for “0.05.”
Mean tumor volume at dosing start was approximately 249 mm^3, with ten mice randomized to each treatment group. Mice were dosed orally, once per day, with Vehicle, Compound A at 10 mg/kg, or dosed for 3 consecutive days followed by 4 days holiday by intraperitoneal (IP) injection of Compound B at 5 mg/kg, or combination of Compound A and Compound B. The vehicle group was a combination of Vehicle A (for Compound A, 0.5% 400 cps methylcellulose with 0.5% Tween-80 in sterile water) and Vehicle B (for irinotecan hydrochloride, Saline).

Panc 03.27 Parent = experiment: 10-day proliferation screen with Compound A pre-treatment (Example 3); type: cell-based; conditions: Homo sapiens, read-out: Growth IC50
Protocol: (§3) A 10-day proliferation screen was performed in 15 pancreatic, non-small cell lung, and bladder cancer cell lines: 10 MTAP null and 5 MTAP wild-type. Optimal cell seeding for all cell lines was determined by assessing the growth over a range of seeding densities in a 384-well format to identify conditions that permitted proliferation for 10 days. […] Cells were incubated at 37° C. with 5% CO2 for 4 days to allow for target engagement of the pre-treatment compound. Maintaining the pre-treatment condition, cells were also treated with an 11-point, three-fold titration series of compounds from a chemically diverse library of 424 compounds. The combination compound concentrations ranged from 0.2 nM to 14,679 nM. A plate of cells was harvested at the time of combination compound addition to quantify the number of cells at the start of the combination (T0). For cell quantification, the harvested cells were lysed with CellTiter-Glo (CTG) (Promega) reagent according to the manufacturer's protocol and the chemiluminescent signal was detected on a Synergy Neo plate reader (ThermoFisher, serial #140715A). CTG estimates cell number through detection of cellular ATP levels. Cells were incubated with the drug combinations at 37° C. with 5% CO2 for an additional 6 days for a total of a 10-day assay including the pre-treatment. Cells were then lysed with CTG and the chemiluminescent signal was measured. CTG values obtained after the 10-day treatment were background subtracted, expressed as a percent of the T0 value, and plotted against compound concentration. Data were fit with a four-parameter equation to generate concentration response curves. Growth IC50 values and maximal growth inhibition were compared between the DMSO and the Compound A pre-treated cells for each combination titration. Combination hit calling was based on the observation of >2-fold shift in growth IC50 and/or greater than 20% […] in growth inhibition.

[3] = system: Panc 03.27 MTAP Knock-out Clone 31; experiment: as above; type: cell-based; conditions: Homo sapiens, read-out: Growth IC50
Protocol: as §3

[4] = PANC-03-27, Cmpd A pre-treatment 15 nM

SMILES: Nc1nc(=O)n(-c2ccccc2Cl)c2nc(C(F)(F)F)ccc12 [Compound A]
- Day 11 TGI [1]: −6%
- TGI [1]: no significant TGI
- Tumor Regression Rate on Day 11 [1]: 0%
- Day 11 TV (mean) ([1]; initial TV 186, vehicle 1018): 1069 mm^3
- Day 14 TGI [2]: 53%
- Day 14 TV (mean) ([2]; initial TV 249, vehicle 1069): 632 mm^3
- TGI ([2]; irinotecan 5 mg/kg IP 3 days on/4 days off): 53%

SMILES: NS(=O)(=O)c1ccc(S(=O)(=O)Nc2cccc3c(Cl)c[nH]c23)cc1 [Indisulam, N-(3-chloro-1H-indol-7-yl)benzene-1,4-disulfonamide]
- IC50 (Panc 03.27 Parent; [4]): 618 nM
- IC50 (Panc 03.27 Parent; PANC-03-27, DMSO pre-treatment): 814 nM
- IC50 [3, 4]: 873 nM
- IC50 ([3]; PANC-03-27, DMSO pre-treatment): 2170 nM
